Legend:
[1] = Global physiological characteristics of diabetic rats (weights, plasma and wound fluid hormones, oxidative stress); format: in vivo, rat; details: for Plasma F2 Isoprostanes: index of oxidative stress
Experimental: All animal procedures were performed in accordance with the NIH Guidance for the Care and Use of Laboratory Animals. The current study used the mildly hyperglycemic, non-obese Goto-Kakizaki (GK) spontaneously diabetic rats, produced by selective inbreeding of glucose-intolerant Wistar rats as a genetic model for type 2 diabetes. Weight-matched female Wistar rats (Kuwait University breeding colony) served as controls. All animals were maintained under standard conditions with 12 hours on/off light cycle, commercial diet, and water ad libitum. Rats destined for various experimental manipulations, including wounding, insulin sensitivity, and drug treatment, were initially matched with regard to body weight (e.g., 230 to 250 g), plasma levels of glucose, free fatty acids and insulin. These indices are commonly used to reflect the severity of the diabetic state.
Cycling control rats in proestrus were used as a reference group. Similarly, the diabetic rats were also treated with PEG-sTNF-RI, a soluble long-lasting form of TNF-RI that neutralizes TNF-α action. […] All of the treatment regimens used with the diabetic rats were given for at least three weeks before wound initiation, and this form of treatment continued during the course of wound healing.
Animals were sacrificed at 3 and 7 days post-wounding. An area that included the complete epithelial margins was excised, and the wounds were bisected and processed so that the mid-point of the wound was sectioned and compared between groups. The resulting specimens were either fixed in 4% paraformaldehyde in phosphate-sucrose buffer and analyzed histologically, or flash frozen in liquid nitrogen and stored at −80° C. prior to biochemical analysis, or embedded in Optimum Cutting Temperature (OCT) compound and immediately frozen in liquid nitrogen for immunofluorescence analysis. It is worthy of note that the number of wounds used for most of the aforementioned studies were in the range of 48 to 60 wounds per treatment. Some parameters related to sex hormones and oxidative stress were measured in serum or wound fluids, which were collected on day 7 post-wounding from subcutaneously inserted stainless steel mesh chambers.

[2] = system: TGF-β1-Smad signaling pathway; assay: TGF-β/Smad-dependent signaling in diabetic wounds; format: in vivo, rat; details: wounds from treated diabetic rats, day 7; for TGF-βRII expression: FIG. 3D; for phospho-Smad2: FIG. 3E; for Smad7 levels: FIG. 3F
Experimental: Samples of the total cellular and nuclear extracts were subjected to protein determinations using the Bicinchoninic Acid Protein Assay Kit (Pierce). For western blotting, an equal volume of 2×SDS sample buffer was added, and the samples were denatured by boiling for 5 minutes. Proteins were applied to SDS-polyacrylamide gel electrophoresis (SDS-PAGE) and transferred to an Immobilon polyvinylidene difluoride membrane (BioRad). The membranes were blocked with tris buffered saline containing 0.05% Tween 20 and 5% skim milk, and then treated with a number of primary antibodies, including Smad2/p-Smad2 (Cell Signaling), Smad7 (Imgenex), and β3-integrin (Santa Cruz). Protein bands were visualized by chemiluminescence (Pierce), and band intensity was determined using Bio-Rad densitometer. Unless otherwise specified, β-actin was used to standardize the quantity of sample protein for all Western blotting analyses.

[3] = system: wound macrophage markers; details: diabetic wounds
[4] = system: NF-κB; assay: NF-κB p65-DNA binding activity in wounds; format: in vivo, rat; details: wounds from treated diabetic rats; FIG. 5G
Experimental: To assess protein expression and NF-κB activation, frozen liquid nitrogen powdered wounded tissues or serum starved RDFs/HDFs were homogenized on ice in a RIPA buffer (50 mM Tris pH 7.4, 150 mM NaCl, 10 mM EDTA, 2 mM sodium vanadate, 150 mM sodium fluoride, 0.5% sodium deoxycholate, 1% Triton X-100, and a cocktail of protease inhibitors) for total cellular proteins, or with a hypotonic buffer A (10 mM HEPES pH 7.9, 10 mM KCl, 2 mM MgCl2, 0.1 mM EDTA, 1.0 mM DTT, 0.5 mM PMSF, 20 mM NaF, 1 mM sodium orthovanadate and a cocktail of protease inhibitors) for the nuclear protein extraction. […] Similarly, the hypotonic buffer-dependent homogenates (500 μl) were incubated on ice for 20 minutes, after which 50 μl of 10% NP-40 was added. The mixture was vortexed and centrifuged (5000×g, 1 min, 4° C.). […]
A quantitative analysis of p65-DNA binding activity was performed on the nuclear protein extracts using the ELISA-based TransAM NFκB Transcription Factor Assay Kit (Active Motif) according to the manufacturer's instruction. […] The activated transcription factor, specifically bound to the immobilized oligonucleotide, was detected using an antibody directed against NF-κB and a secondary antibody conjugated to horseradish peroxidase. The developing solution was then added, and the OD (450-665 mm) was measured using a microplate reader (Thermo Scientific). Results were expressed as % of control.

[5] = system: rheumatoid arthritis in rat models; details: subcutaneous administration, dose of 0.3 mg/kg; cited from earlier work
[6] = system: GK diabetic rats; assay: Insulin sensitivity clamp (Rapid Insulin Sensitivity Test) in female diabetic rats
[7] = system: GK diabetic rats; assay: Full-thickness excisional wound healing in GK diabetic rats (closure, re-epithelialization, ECM deposition); details: diabetic wounds
[8] = GK diabetic rats treated, plasma, mean±SEM
[9] = GK diabetic rats treated, wound fluid day 7 post-wounding, mean±SEM
[10] = female GK diabetic rats treated, mean±SEM

## C[C@]12CC[C@@H]3c4ccc(O)cc4CC[C@H]3[C@@H]1CC[C@@H]2O [E2, β-estradiol]
[1]; GK diabetic rats treated, mean±SEM
  Weight (g) Uterus: 0.41 ± 0.04 g
[1]; [8]
  Plasma F2 Isoprostanes: 47 ± 6.6 pg/mL
  Plasma Testosterone: 849 ± 85 pg/mL
[1]; [9]
  Wound fluid F2 Isoprostanes: 43 ± 4.4 pg/mL
  Wound fluid Testosterone: 456 ± 47 pg/mL
[1]; GK diabetic rats, Table 1
  diabetes-related abnormalities (testosterone, F2 isoprostanes, uterine weights, plasma and wound E2 levels): Most of the aforementioned abnormalities were normalized
[2]
  TGF-βRII expression: augmented
  phospho-Smad2: augmented
  Smad7 levels: decreased
[3]; FIG. 5C-E
  up-regulation in M1 macrophage-derived markers, together with the resolution of inflammation within the diabetic wound microenvironment: normalized
[3]; FIGS. 2F, 2G, 3A, 3B, 5F
  diabetes-related decrease in the expression of wound M2 macrophage phenotype: partial reversal

## TNFR1: soluble pegylated long-lasting form of TNF-RI (Amgen) that neutralizes TNF-α action
[1]; [8]
  Plasma F2 Isoprostanes: 69 ± 8.4 pg/mL
[1]; [9]
  Wound fluid F2 Isoprostanes: 59 ± 5.2 pg/mL
[2]
  TGF-βRII expression: augmented
  phospho-Smad2: augmented
  Smad7 levels: decreased
[4]
  NF-κB activity: significant decrease
[3]
  pro-resolving/M2 polarizing effect: recapitulated
[5]
  inflammatory reaction of rheumatoid arthritis: appears to limit the inflammatory reaction
[6]; diabetic animals, Table 2
  effect on carbohydrate tolerance: favorable effect
  hyperinsulinemic state: partially ameliorated
  target tissue sensitivity to insulin (increase in glucose infusion rate): significantly improved
[6]; female GK diabetic rats treated, clamp, mean±SEM
  GIR: Glucose infusion rate: 18.53 ± 1.49 mg/min/kg body wt
[6]; [10]
  FBG: Fasting blood glucose: 125 ± 17 mg/dL
  FPI: Fasting plasma insulin: 0.68 ± 0.05 ng/mL
  PCPI: Post clamp plasma insulin: 4.61 ± 0.4 ng/mL
[7]; FIG. 2A-D
  deposition of ECM: significant improvement
[7]; FIGS. 1A and B
  healing process, at the macroscopic and microscopic levels: significant improvement

— patent publication US9387183B2, “Method of treating diabetes-related impaired wound healing” (KUWAIT UNIVERSITY, priority 2011, dated 2016)
